Test results published in US10512656B2, “Compositions and methods for the treatment of lysosomal storage disorders and disorders characterized by lysosomal dysfunction” (Baylor College of Medicine, priority 2016, dated 2019).

What was measured:
[1] = test system: lysosomal and autophagy genes; test: Expression analysis of lysosomal and autophagy genes in HeLa cells; assay type: cell-based, human; conditions: HeLa cells treated with MK2206
Method: FIG. 24. […] (b) Immunoblot analysis of LC3 lipidation. […] (d) Expression analysis of lysosomal and autophagy genes in HeLa cells treated with MK2206. Gene expression was normalized relative to the housekeeping gene, GAPDH. The dashed line indicates relative gene expression in untreated cells. […] Scale bar, 10 μm (a), 50 nm (c) and 20 μm (f).
Control (Coriell Institute, USA) and JNCL fibroblasts (Gaslini Institute, Italy) were grown in DMEM (1:1, HyClone) supplemented with 10% heat-inactivated fetal bovine serum (FBS, Atlanta Biologicals), 2 mM L-glutamine, 100 U/ml penicillin and […] streptomycin (Invitrogen). […]
Total RNA was extracted from the control and JNCL fibroblasts and from WT and Cln3^Δex7-8 cortical neuron cultures using the RNEasy kit (Qiagen) according to the manufacturer's instructions. Half of the mouse brain was processed for the RNA extraction and one microgram was used for complementary DNA synthesis by QuantiTect Reverse Transcription kit (Qiagen). The primers for PCR with reverse transcription reactions are listed in Table St Quantitative real-time PCR was performed by using iQ SYBR Green Supermix on the CFX96 Touch Real-Time Detection System (Bio-Rad Laboratories). […] Relative gene expression was determined using the ΔΔCT method, normalizing to GAPDH (for human genes) and cyclophilin (for mouse genes). […]

TFEB = TFEB nuclear translocation in cells expressing constitutively active GSK3β; assay type: cell-based, human; conditions: cells expressing CA-GSK3β/S9A-GSK3β, 24 h
Method: FIG. 16. Trehalose controls Akt regulation of TFEB in a GSK3β-independent manner. (a) HeLa cells were treated with trehalose for 24 h or left untreated. Immunoblot analyses were used to evaluate levels of GSK33 and its phosphorylation status. GAPDH was used as a loading control. (b) HeLa cells were cotransfected with TFEB-3×Flag and constitutively active GSK3β (CA-GSK3β), treated with trehalose or MK2206 for 24 h, and examined by immunofluorescence labeling for Flag (red) and GSK3β (green). Scale bar is 20 […]. (c) HeLa cells were cotransfected with TFEB-3×Flag and constitutively active Akt (Akt-DD), treated with the GSK3β inhibitor CHIR99021 for 24 h, and examined by immunofluorescence labeling for Flag (red) and Akt (green). Scale bar is 20 μm.

MITF = MITF nuclear translocation in HeLa cells; assay type: cell-based, human; conditions: HeLa cells transfected with MITF-3×Flag
Excerpt: FIG. 23. Pharmacological inhibition of AKT induces nuclear translocation of TFE3 and MITF. HeLa cells were transiently transfected with TFE3-3×Flag (a) and MITF-3×Flag (b) and analyzed by confocal microscopy. Scale bar is 10 μm.

[2] = test system: lysosomal and autophagy genes; test: Expression analysis of whole brain homogenates; assay type: in vivo, mouse
Method: Total RNA was extracted from the control and JNCL fibroblasts and from WT and Cln3^Δex7-8 cortical neuron cultures using the RNEasy kit (Qiagen) according to the manufacturer's instructions. Half of the mouse brain was processed for the RNA extraction and one microgram was used for complementary DNA synthesis by QuantiTect Reverse Transcription kit (Qiagen). The primers for PCR with reverse transcription reactions are listed in Table St Quantitative real-time PCR was performed by using iQ SYBR Green Supermix on the CFX96 Touch Real-Time Detection System (Bio-Rad Laboratories). Samples were heated for 3 min at 95° C. and amplified in 39 cycles for 11 s at 95° C., 45 s at 60° C. with last cycle of 10 s at 95° C., 5 s at 65° C. and 5 s at 95° C. Analyses were conducted using CFX manager software (Bio-Rad) and the threshold cycle (CT) was extracted from the PCR amplification plot. Relative gene expression was determined using the ΔΔCT method, normalizing to GAPDH (for human genes) and cyclophilin (for mouse genes). The change in messenger RNA level of the genes was expressed in fold change as previously described. Error bars represent s.e.m. *P<0.05, **P<0.01, ***P<0.001.
Mice were injected intraperitoneally with MK2206 (120 mg/kg) for four times every other day. MK2206 was formulated in 30% captisol in water. […]

[3] = humans, oral; cited from earlier work
Cln3^Δex7-8 and WT mice = test: Auditory brainstem response (ABR) measurements; assay type: in vivo, mouse; conditions: 10-month-old mice, both genotypes, vs untreated age-matched controls
Method: ABRs were measured as previously described^69. Briefly, 10-month-old mice (n=4-6 per genotype/treatment group) were anaesthetized using an intraperitoneal injection of ketamine (100 mg/kg) and xylazine (10 mg/kg) and then immobilized in a head holder. Normal body temperature was maintained throughout the procedure by placing the mice on a heating pad. Pure tone stimuli from 4 to 48 kHz were generated using Tucker-Davis Technologies System 3 digital signal processing hardware and software (Tucker-Davis Technologies, Alachua, Fla., USA), and the intensity of the tone stimuli was calibrated using a type 4,938 ¼″ pressure-field calibration microphone (Bruel and Kjar, Nrum, Denmark). Response signals were recorded with subcutaneous needle electrodes inserted at the vertex of the scalp, the postauricular region and the back leg (ground)^69. Auditory thresholds were determined by decreasing the sound intensity of each stimulus from 90 to 10 dB in 5 dB steps, until the lowest sound intensity with reproducible and recognizable waves in the response was reached. Mean hearing thresholds±s.d. (dB SPL) were plotted as a function of stimulus frequency (kHz). Statistical analysis consisted of one-way analyses of variance to reveal overall trends accompanied by two-tailed Student's t-tests at individual frequencies to evaluate frequency-specific effects. […]

TFEB S211 = TFEB S211 phosphorylation (Phospho(Ser)-14-3-3 binding motif immunoblot); assay type: cell-based, human; conditions: HeLa cells transfected with TFEB-Flag, trehalose 24 h
Method: FIG. 9. […] TFEB-Flag was immunoprecipitated from HeLa cells transfected with TFEB-Flag and treated with trehalose for 24 h or left untreated. Immunoblot analyses were performed using antibody against Phospho(Ser)-14-3-3 binding motif and control antibodies.

SMILES	expression of lysosomal and autophagy genes [1]	TFEB nuclear translocation (TFEB)	MITF nuclear translocation (MITF)	expression of lysosomal and autophagy genes in brain ([2]; Cln3^Δex7-8 mice, MK2206 120 mg/kg intraperitoneal)	ingested trehalose absorbed into the blood stream [3]	ABR thresholds (Cln3^Δex7-8 and WT mice)	expression of lysosomal and autophagy genes in brain ([2]; WT and Cln3^Δex7-8 mice, oral trehalose)	phosphorylation of TFEB S211 (TFEB S211)
Cl.NC1(c2ccc(-c3nc4ccn5c(=O)[nH]nc5c4cc3-c3ccccc3)cc2)CCC1 [MK2206, 8-[4-(1-aminocyclobutyl)phenyl]-9-phenyl-1,2,4-triazolo[3,4-f][1,6]naphthyridin-3(2H)-one]	upregulated the expression of lysosomal and autophagy genes	able to induce nuclear translocation of TFEB	promoted nuclear translocation of these two factors	upregulation of lysosomal and autophagy genes	–	–	–	–
OC[C@H]1O[C@H](O[C@H]2O[C@H](CO)[C@@H](O)[C@H](O)[C@H]2O)[C@H](O)[C@@H](O)[C@@H]1O [trehalose, a-D-glucopyranosyl a-D-glucopyranoside]	–	able to induce nuclear translocation of TFEB	–	–	Less than 0.5%	lower ABR thresholds	upregulation of lysosomal and autophagy genes	does not modify phosphorylation of TFEB S211
